Results as given in patent US20260317356A1, “SMALL MOLECULE MODULATORS OF OGG1” (AZKARRA THERAPEUTICS, INC., priority 2023, published 2026).

These molecules were tested against hOGG1 (Homo sapiens, UniProt O15527) (assay: Biochemical fluorescence assay to measure enzymatic activity of hOGG1 (OGG1/APEX IC50)). Conditions: 1 nM OGG1+2 nM APEX+6 nM dsDNA (8-oxo-dG substrate); pH 7.5; RT 40 min; read-out: OGG1/APEX IC50.
Sequence of hOGG1 (O15527 12-323): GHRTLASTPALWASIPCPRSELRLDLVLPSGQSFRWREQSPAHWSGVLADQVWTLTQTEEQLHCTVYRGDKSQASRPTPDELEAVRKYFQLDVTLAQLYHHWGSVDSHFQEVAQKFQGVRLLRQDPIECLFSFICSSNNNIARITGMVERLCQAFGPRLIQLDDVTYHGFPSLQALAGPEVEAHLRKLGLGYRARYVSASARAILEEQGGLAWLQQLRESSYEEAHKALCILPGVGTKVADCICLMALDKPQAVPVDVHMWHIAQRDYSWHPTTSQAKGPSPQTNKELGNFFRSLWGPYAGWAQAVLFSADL
Design: Protein His-hOGG1 (12-323) was prepared; His (N); host or cells: E. coli
Method in brief: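 Coupled glycosylase/AP-endonuclease read-out: 8-oxo-dG-containing dsDNA (6 nM) cleaved by 1 nM His-hOGG1 (12-323) plus 2 nM APEX1 over 40 min at room temperature, after 20 min enzyme–compound preincubation; buffer 20 mM Tris pH 7.5, 100 mM KCl, 0.1% BSA, 0.01% Tween. IC50 comes from sigmoidal 3-parameter fitting of % inhibition derived from TAMRA signal.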
Molecule COc1cc(NC(=O)[C@H]2CC[C@@H](N3Cc4c(C)cc([N+](=O)[O-])cc4C3=O)CC2)ccc1C [Example 167, (1s,4s)-N-(3-Methoxy-4-methylphenyl)-4-(4-methyl-6-nitro-1-oxoisoindolin-2-yl)cyclohexanecarboxamide] has an IC50 of under 100 nM.
COc1ccc(NC(=O)[C@H]2CC[C@@H](N3Cc4c(C)cccc4NC3=O)CC2)cc1C [Example 87, (1s,4s)-N-(4-methoxy-3-methylphenyl)-4-(5-methyl-2-oxo-1,2-dihydroquinazolin-3(4H)-yl)cyclohexanecarboxamide] showed an IC50 of under 100 nM.
COc1cc(NC(=O)[C@H]2CC[C@@H](N3Cc4c(C)cc(C(=O)NCCN(C)C)cc4C3=O)CC2)ccc1C [Example 217, N-(2-(Dimethylamino)ethyl)-2-((1s,4s)-4-(3-methoxy-4-methylphenylcarbamoyl)cyclohexyl)-7-methyl-3-oxoisoindoline-5-carboxamide] showed an IC50 of under 100 nM.
COc1cc(NC(=O)[C@H]2CC[C@@H](N3Cc4c(ccnc4Br)C3=O)CC2)ccc1C [Example 176, (1s,4s)-4-(4-Bromo-1-oxo-1H-pyrrolo[3,4-c]pyridin-2(3H)-yl)-N-(3-methoxy-4-methylphenyl)cyclohexanecarboxamide] was tested, and the IC50 was 100 to 1000 nM.
In the case of COc1cc(NC(=O)[C@H]2CC[C@@H](N3Cc4c(C)cccc4C3=O)CC2)ccc1C1CC1 [Example 121, (1s,4s)-N-(4-Cyclopropyl-3-methoxyphenyl)-4-(4-methyl-1-oxoisoindolin-2-yl)cyclohexane-1-carboxamide], the IC50 is reported as 1000 to 10000 nM.
In the case of COc1cc(NC(=O)[C@H]2CC[C@@H](N3Cc4c(C)cccc4OC3=O)CC2)ccc1C [Example 115, (1s,4s)-N-(3-methoxy-4-methylphenyl)-4-(5-methyl-2-oxo-2H-benzo[e][1,3]oxazin-3(4H)-yl)cyclohexane-1-carboxamide], the IC50 is reported as 100 to 1000 nM.
Work on Cc1cccc2c1CN([C@H]1CC[C@@H](C(=O)Nc3ccn(C)c(=O)c3)CC1)C2=O [Example 252, (1s,4s)-4-(4-Methyl-1-oxoisoindolin-2-yl)-N-(1-methyl-2-oxo-1,2-dihydropyridin-4-yl)cyclohexanecarboxamide] yielded an IC50 of over 10000 nM.
COc1cc(NC(=O)[C@H]2CC[C@@H](N3Cc4c(C)ccc(OCCN(C)C)c4NC3=O)CC2)ccc1C [Example 21, (1s,4s)-4-(8-(2-(Dimethylamino)ethoxy)-5-methyl-2-oxo-1,2-dihydroquinazolin-3(4H)-yl)-N-(3-methoxy-4-methylphenyl)cyclohexanecarboxamide] gave an IC50 of under 100 nM.
Work on Cc1cccc2c1CN([C@H]1CC[C@@H](C(=O)Nc3ccc4nc[nH]c4c3)CC1)C2=O [Example 272, (1s,4s)-N-(1H-benzo[d]imidazol-6-yl)-4-(4-methyl-1-oxoisoindolin-2-yl)cyclohexanecarboxamide] yielded an IC50 of 1000 to 10000 nM.
COc1cc(NC(=O)[C@H]2CC[C@@H](N3Cc4c(F)cccc4C3=O)CC2)ccc1C [Example 164, (1s,4s)-4-(4-Fluoro-1-oxoisoindolin-2-yl)-N-(3-methoxy-4-methylphenyl)cyclohexanecarboxamide] was tested, and the IC50 was 1000 to 10000 nM.
COc1ccc(NC(=O)[C@H]2CC[C@@H](N3Cc4c(C)cccc4C3=O)CC2)cc1OC [Example 219, (1s,4s)-N-(3,4-dimethoxyphenyl)-4-(4-methyl-1-oxoisoindolin-2-yl)cyclohexanecarboxamide] was tested, and the IC50 was 100 to 1000 nM.
COc1cc(NC(=O)[C@H]2CC[C@@H](N3Cc4c(C)ccc(O)c4NC3=O)CC2)ccc1C [Example 61, (1s,4s)-4-(8-hydroxy-5-methyl-2-oxo-1,2-dihydroquinazolin-3(4H)-yl)-N-(3-methoxy-4-methylphenyl)cyclohexanecarboxamide] gave an IC50 of under 100 nM.
COc1cc(NC(=O)[C@H]2CC[C@@H](N3Cc4c(C)ccc(N5CC(OC)C5)c4NC3=O)CC2)ccc1C [Example 38, (1s,4s)-N-(3-Methoxy-4-methylphenyl)-4-(8-(3-methoxyazetidin-1-yl)-5-methyl-2-oxo-1,2-dihydroquinazolin-3(4H)-yl)cyclohexanecarboxamide] gave an IC50 of under 100 nM.
COc1cc(NC(=O)[C@H]2CC[C@@H](N3Cc4c(C)cncc4NC3=O)CC2)ccc1C [Example 37, (1s,4s)-N-(3-Methoxy-4-methylphenyl)-4-(5-methyl-2-oxo-1,2-dihydropyrido[3,4-d]pyrimidin-3(4H)-yl)cyclohexanecarboxamide] gave an IC50 of under 100 nM.
Work on C=Cc1ccc(NC(=O)[C@H]2CC[C@@H](N3Cc4c(C)cccc4C3=O)CC2)cc1OC [Example 122, (1s,4s)-N-(3-Methoxy-4-vinylphenyl)-4-(4-methyl-1-oxoisoindolin-2-yl)cyclohexane-1-carboxamide] yielded an IC50 of 100 to 1000 nM.
For Cc1cnc(NC(=O)[C@H]2CC[C@@H](N3Cc4c(C)cccc4C3=O)CC2)s1 [Example 235, (1s,4s)-4-(4-Methyl-1-oxoisoindolin-2-yl)-N-(5-methylthiazol-2-yl)cyclohexanecarboxamide], the IC50 was over 10000 nM.
COc1cc(NC(=O)[C@H]2CC[C@@H](N3Cc4c(Br)cc(NC(=O)CN(C)C)cc4C3=O)CC2)ccc1C [Example 202, (1s,4s)-4-(4-bromo-6-(2-(dimethylamino)acetamido)-1-oxoisoindolin-2-yl)-N-(3-methoxy-4-methylphenyl)cyclohexanecarboxamide] was tested, and the IC50 was 100 to 1000 nM.
Cc1cccc2c1CN([C@H]1CC[C@@H](C(=O)Nc3ccc(Cl)c(F)c3)CC1)C(=O)N2 [Example 90, (1s,4s)-N-(4-chloro-3-fluorophenyl)-4-(5-methyl-2-oxo-1,2-dihydroquinazolin-3(4H)-yl)cyclohexanecarboxamide] gave an IC50 of 100 to 1000 nM.
COc1cc(NC(=O)[C@H]2CC[C@@H](N3Cc4c(C)cc(CNS(C)(=O)=O)cc4NC3=O)CC2)ccc1C [Example 26, (1s,4s)-N-(3-Methoxy-4-methylphenyl)-4-(5-methyl-7-(methylsulfonamidomethyl)-2-oxo-1,2-dihydroquinazolin-3(4H)-yl)cyclohexanecarboxamide] was tested, and the IC50 was under 100 nM.
With COc1cc(NC(=O)[C@H]2CC[C@@H](N3Cc4c(Br)cc(NCCN(C)C)cc4C3=O)CC2)ccc1C [Example 198, (1s,4s)-4-(4-Bromo-6-(2-(dimethylamino)ethylamino)-1-oxoisoindolin-2-yl)-N-(3-methoxy-4-methylphenyl)cyclohexanecarboxamide] the IC50 was under 100 nM.
In the case of COc1cc(NC(=O)[C@]2(C)CC[C@@H](N3Cc4c(C)cccc4NC3=O)CC2)ccc1C (single isomer, unassigned) [Example 102, (1r,4r)-N-(3-methoxy-4-methylphenyl)-1-methyl-4-(5-methyl-2-oxo-1,2-dihydroquinazolin-3(4H)-yl)cyclohexanecarboxamide], the IC50 is reported as 1000 to 10000 nM.
COc1cc(NC(=O)[C@H]2CC[C@@H](N3Cc4c(C)cc(OCCN5CCC5)cc4C3=O)CC2)ccc1C [Example 261, (1s,4s)-4-(6-(2-(Azetidin-1-yl)ethoxy)-4-methyl-1-oxoisoindolin-2-yl)-N-(3-methoxy-4-methylphenyl)cyclohexanecarboxamide] showed an IC50 of under 100 nM.
Molecule COc1cc(NC(=O)[C@H]2CC[C@@H](N3Cc4c(C)cccc4C3=O)CC2)ccc1C#N [Example 265, (1s,4s)-N-(4-Cyano-3-methoxyphenyl)-4-(4-methyl-1-oxoisoindolin-2-yl)cyclohexanecarboxamide] has an IC50 of over 10000 nM.
In the case of O=C1c2cccc(Br)c2CN1[C@H]1CC[C@@H](C(=O)Nc2ccc3c(c2)OCCO3)CC1 [Example 191, (1s,4s)-4-(4-Bromo-1-oxoisoindolin-2-yl)-N-(2,3-dihydrobenzo[b][1,4]dioxin-6-yl)cyclohexanecarboxamide], the IC50 is reported as 1000 to 10000 nM.
With COc1cc(NC(=O)[C@H]2CC[C@@H](N3Cc4c(ccc(C#N)c4C)NC3=O)CC2)ccc1C [Example 56, (1s,4s)-4-(6-Cyano-5-methyl-2-oxo-1,2-dihydroquinazolin-3(4H)-yl)-N-(3-methoxy-4-methylphenyl)cyclohexanecarboxamide] the IC50 was 100 to 1000 nM.
In the case of COc1cc(NC(=O)[C@H]2CC[C@@H](N3Cc4c(C)cc(N)cc4NC3=O)CC2)ccc1C [Example 76, (1s,4s)-4-(7-amino-5-methyl-2-oxo-1,2-dihydroquinazolin-3(4H)-yl)-N-(3-methoxy-4-methylphenyl)cyclohexanecarboxamide], the IC50 is reported as under 100 nM.
COc1cc(NC(=O)C[C@H]2C[C@H](N3Cc4c(Br)cccc4C3=O)C2)ccc1C [Example 187, 2-((1r,3r)-3-(4-Bromo-1-oxoisoindolin-2-yl)cyclobutyl)-N-(3-methoxy-4-methylphenyl)acetamide] was tested, and the IC50 was over 10000 nM.
For COc1cc(NC(=O)[C@H]2CC[C@@H](N3Cc4c(C)cc(C5=CCNCC5)cc4C3=O)CC2)ccc1C [Example 146, (1s,4s)-N-(3-Methoxy-4-methylphenyl)-4-(4-methyl-1-oxo-6-(1,2,3,6-tetrahydropyridin-4-yl)isoindolin-2-yl)cyclohexanecarboxamide], the IC50 was under 100 nM.
In the case of COc1cc(NC(=O)[C@H]2CC[C@@H](N3Cc4c(Br)cc(NC(=O)Cn5ccnc5)cc4C3=O)CC2)ccc1C [Example 196, (1s,4s)-4-(6-(2-(1H-Imidazol-1-yl)acetamido)-4-bromo-1-oxoisoindolin-2-yl)-N-(3-methoxy-4-methylphenyl)cyclohexanecarboxamide], the IC50 is reported as 100 to 1000 nM.
In the case of COc1cc(NC(=O)[C@H]2CC[C@@H](N3Cc4c(ccc(OCCN(C)C)c4C)NC3=O)CC2)ccc1C [Example 40, (1s,4s)-4-(6-(2-(Dimethylamino)ethoxy)-5-methyl-2-oxo-1,2-dihydroquinazolin-3(4H)-yl)-N-(3-methoxy-4-methylphenyl)cyclohexanecarboxamide], the IC50 is reported as 1000 to 10000 nM.
With Cc1cccc2c1CN([C@H]1CC[C@@H](C(=O)Nc3ccc4nc[nH]c4c3)CC1)C(=O)N2 [Example 109, (1s,4s)-N-(1H-benzo[d]imidazol-6-yl)-4-(5-methyl-2-oxo-1,2-dihydroquinazolin-3(4H)-yl)cyclohexanecarboxamide] the IC50 was 1000 to 10000 nM.
